In patent US20170121344A1 (Siga Technologies, Inc., priority 2009, published 2017):
Like-named read-outs stand apart in the source and are kept apart here.

Tested on: Dengue-2 (Strain New Guinea C)
Assay: Viral yield assay against Dengue-2 in Vero cells
Format: cell-based, Dengue virus
Conditions: Dengue virus
Description: Compounds that were active in the primary screen were tested for activity in viral yield assays. […] Vero cells in 12-well plates were infected with dengue-2 virus at a multiplicity of infection (MOI) of 0.1, treated with compound (or DMSO as a control), incubated at 37° C., harvested 48 hours post infection and titered on Vero cells as described above. The EC50 was calculated through ExcelFit. Activities against other serotypes of dengue virus were determined in a similar way.

[1] = DENV2, viral yield assay, Vero cells, MOI 0.1, 48 hours post infection, read-out: Activity (EC50 in μM) DENV-2
[2] = Vero cells, MOI 0.1, harvested 48 hours post infection, read-out: Activity (EC50 class) against Dengue-2 Virus in Vero cells
[3] = Vero, 48 h, read-out: Activity (EC50 class) against Dengue-2 Virus in Vero cells
[4] = DENV2, Vero cells, read-out: Activity (EC50 in μM) DENV-2

| Structure (SMILES) | EC50 [2] [µM] | other results |
| --- | --- | --- |
| COc1cccc(-c2ccc3c(N)c(C(=O)Nc4ccccc4C)sc3n2)c1 [Compound 521, 3-amino-6-(3-methoxyphenyl)-N-(o-tolyl)thieno[2,3-b]pyridine-2-carboxamide] |  | EC50 [1]: < 5 µM |
| COCc1cc(C)nc2sc3c(=O)[nH]nnc3c12 [Compound 76, 9-Methoxymethyl-7-methyl-3H-pyrido[3′,2′:4,5]thieno[3,2-d][1,2,3]triazin-4-one] | 5 to 25 |  |
| N#Cc1cc2c(N)c(C(=O)N(c3ccccc3)c3ccccc3)sc2nc1N [Compound 69, 3,6-Diamino-5-cyano-thieno[2,3-b]pyridine-2-carboxylic acid diphenylamide] | 5 to 25 |  |
| Cc1csc(NC(=O)c2sc3nc(C)c4c(c3c2N)CCCC4)n1 [Compound 4, 1-Amino-5-methyl-6,7,8,9-tetrahydro-thieno[2,3-c]isoquinoline-2-carboxylic acid (4-methyl-thiazol-2-yl)-amide] |  | EC50 [3]: < 5 µM |
| CN1CCc2nc3sc(C(=O)Nc4ccccc4)c(N)c3c(-c3ccccc3)c2C1 [Compound 49, 3-Amino-6-methyl-4-phenyl-5,6,7,8-tetrahydro-thieno[2,3-b][1,6]naphthyridine-2-carboxylic acid phenylamide] | < 5 |  |
| COCc1cc(C)nc2sc(C(=O)N(c3ccccc3)c3ccccc3)c(N)c12 [Compound 140, 3-Amino-4-methoxymethyl-6-methyl-thieno[2,3-b]pyridine-2-carboxylic acid diphenylamide] |  | EC50 [3]: > 25 µM |
| COc1ccccc1NC(=O)c1sc2nc(N3CCOCC3)c3c(c2c1N)CC(C)(C)OC3 [Compound 247, 1-Amino-8,8-dimethyl-5-morpholin-4-yl-8,9-dihydro-6H-7-oxa-3-thia-4-aza-cyclopenta[a]naphthalene-2-carboxylic acid (2-methoxy-phenyl)-amide] | > 25 |  |
| CCc1nnc(NC(=O)c2sc3nc4c(cc3c2N)CCC4)s1 [Compound 190, 3-Amino-6,7-dihydro-5H-cyclopenta[b]thieno[3,2-e]pyridine-2-carboxylic acid (5-ethyl-[1,3,4]thiadiazol-2-yl)-amide] | > 25 |  |
| COCc1cc(C)c2c(N)c(C(N)=O)sc2n1 [Compound 68, 3-Amino-6-methoxymethyl-4-methyl-thieno[2,3-b]pyridine-2-carboxylic acid amide] | 5 to 25 |  |
| COc1ccc(-c2ccc3c(N)c(C(=O)Nc4ccc(Br)c(C)c4)sc3n2)cc1OC [Compound 579, 3-amino-N-(4-bromo-3-methyl-phenyl)-6-(3,4-dimethoxyphenyl)thieno[2,3-b] pyridine-2-carboxamide] |  | EC50 [1]: < 5 µM |
| Nc1c(C(=O)Nc2ccc(Cl)c(C(F)(F)F)c2)sc2nc(-c3cccs3)ccc12 [Compound 443, 3-amino-N-[4-chloro-3-(trifluoromethyl)phenyl]-6-(2-thienyl) thieno[2,3-b]pyridine-2-carboxamide] |  | EC50 [1]: < 5 µM |
| CC(=O)Nc1ccc(NC(=O)c2sc3nc4c(cc3c2N)CCCC4)cc1 [Compound 204, 3-Amino-5,6,7,8-tetrahydro-thieno[2,3-b]quinoline-2-carboxylic acid (4-acetylamino-phenyl)-amide] | > 25 |  |
| CN1CCc2nc3sc(C(=O)NCc4ccccc4)c(N)c3cc2C1 [Compound 106, 3-Amino-6-methyl-5,6,7,8-tetrahydro-thieno[2,3-b][1,6]naphthyridine-2-carboxylic acid benzylamide] |  | EC50 [3]: 5 to 25 µM |
| COCc1cc(C)nc2sc(C(=O)N3CCc4ccccc43)c(N)c12 [Compound 249, (3-Amino-4-methoxymethyl-6-methyl-thieno[2,3-b]pyridin-2-yl)-(2,3-dihydro-indol-1-yl)-methanone] | > 25 |  |
| Nc1c(C(=O)Nc2cccc(C(F)(F)F)c2)sc2ncccc12 [Compound 420, 3-amino-N-[3-(trifluoromethyl)phenyl] thieno[2,3-b]pyridine-2-carboxamide] |  | EC50 [1]: < 5 µM |
| COc1ccc(NC(=O)c2sc3nc(-c4cccs4)ccc3c2N)c(OC)c1 [Compound 432, 3-amino-N-(2,4-dimethoxyphenyl)-6-(2-thienyl)thieno[2,3-b]pyridine-2-carboxamide] |  | EC50 (DENV2, Vero, 48 h, read-out: Activity (EC50 in μM) DENV-2): 5 to 25 µM |
| CCc1nnc(NC(=O)c2sc3nc(C)cc(COC)c3c2N)s1 [Compound 137, 3-Amino-4-methoxymethyl-6-methyl-thieno[2,3-b]pyridine-2-carboxylic acid (5-ethyl-[1,3,4]thiadiazol-2-yl)-amide] | > 25 |  |
| CN1CCc2nc3sc(C(=O)Nc4cc(Cl)ccc4Cl)c(N)c3cc2C1 [Compound 44, 3-Amino-6-methyl-5,6,7,8-tetrahydro-thieno[2,3-b][1,6]naphthyridine-2-carboxylic acid (2,5-dichloro-phenyl)-amide] | < 5 |  |

| Structure (SMILES) | EC50 [2] [µM] | other results |
| --- | --- | --- |
| COCc1cc(C)nc2sc(C(=O)Nc3cccc4ccccc34)c(N)c12 [Compound 74, 3-Amino-4-methoxymethyl-6-methyl-thieno[2,3-b]pyridine-2-carboxylic acid naphthalen-1-ylamide] | 5 to 25 |  |
| Cc1cc(C)c2c(n1)sc1c(=O)n(-c3cccc(C(F)(F)F)c3)cnc12 [Compound 198, 7,9-Dimethyl-3-(3-trifluoromethyl-phenyl)-3H-pyrido[3′,2′:4,5]thieno[3,2-d]pyrimidin-4-one] | > 25 |  |
| CC1(C)Cc2nc3sc4c(=O)n(Cc5ccccc5)cnc4c3cc2CO1 [Compound 174, 2-Benzyl-8,8-dimethyl-8,9-dihydro-2H,6H-7-oxa-11-thia-2,4,10-triaza-benzo[b]fluoren-1-one] | > 25 |  |
| COc1cccc(-c2ccc3c(N)c(C(=O)Nc4cc(OC)ccc4OC)sc3n2)c1 [Compound 496, 3-amino-N-(2,5-dimethoxyphenyl)-6-(3-methoxyphenyl)thieno[2,3-b]pyridine-2-carboxamide] |  | EC50 [1]: < 5 µM |
| CN1CCc2nc3sc(C(=O)Nc4nncs4)c(N)c3cc2C1 [Compound 278, 3-Amino-6-methyl-5,6,7,8-tetrahydro-thieno[2,3-b][1,6]naphthyridine-2-carboxylic acid [1,3,4]thiadiazol-2-ylamide] | > 25 |  |
| Cc1cc(C)c2c(C)c(C(=O)N3c4ccccc4CC3C)sc2n1 (stereo not drawn) [Compound 398, (2-methylindolin-1-yl)-(3,4,6-trimethyl-thieno[2,3-b]pyridin-2-yl)methanone] |  | EC50 [1]: 5 to 25 µM |
| CCOc1ccccc1NC(=O)c1sc2nc(-c3cccc(OC)c3)ccc2c1N [Compound 501, 3-amino-N-(2-ethoxyphenyl)-6-(3-methoxyphenyl)thieno[2,3-b]pyridine-2-carboxamide] |  | EC50 [1]: < 5 µM |
| COc1ccc(-c2cc(-c3ccccc3)nc3sc(C(=O)Nc4ccccc4)c(N)c23)cc1 [Compound 126, 3-Amino-4-(4-methoxy-phenyl)-6-phenyl-thieno[2,3-b]pyridine-2-carboxylic acid phenylamide] | > 25 |  |
| CN(C)CC(=O)Nc1c(C(=O)Nc2cccc(C(F)(F)F)c2)sc2nc(-c3cccs3)ccc12 [Compound 308, 3-[[2-(dimethylamino)acetyl]amino]-6-(2-thienyl)-N-[3-(trifluoromethyl)phenyl]thieno[2,3-b]pyridine-2-carboxamide] |  | EC50 [4]: < 5 µM |
| CN1CCc2nc3sc(C(=O)NC(C)(C)C)c(N)c3cc2C1 [Compound 107, 3-Amino-6-methyl-5,6,7,8-tetrahydro-thieno[2,3-b][1,6]naphthyridine-2-carboxylic acid tart-butylamide] |  | EC50 [3]: 5 to 25 µM |
| CN1CCc2nc3sc(C(=O)Nc4ccc(Cl)cc4)c(N)c3c(-c3cccs3)c2C1 [Compound 36, 3-Amino-6-methyl-4-thiophen-2-yl-5,6,7,8-tetrahydro-thieno[2,3-b][1,6]naphthyridine-2-carboxylic acid (4-chloro-phenyl)-amide] | < 5 |  |
| CN(C)CCN(C(=O)c1sc2nc(-c3cccs3)ccc2c1N)c1cccc(C(F)(F)F)c1 [Compound 323, 3-amino-N-(2-dimethylaminoethyl)-6-(2-thienyl)-N-[3-(trifluoromethyl)phenyl]thieno[2,3-b]pyridine-2-carboxamide] |  | EC50 [1]: < 5 µM |
| COc1cccc(-c2ccc3c(N)c(C(=O)Nc4cccc(Cl)c4Cl)sc3n2)c1 [Compound 563, 3-amino-N-(2,3-dichlorophenyl)-6-(3-methoxypnenyl)thieno[2,3-b]pyridine-2-carboxamide] |  | EC50 [1]: < 5 µM |
| CN(C)CCNc1c(C(=O)Nc2nnc(-c3ccccc3)s2)sc2nc3c(cc12)CCCCC3 [Compound 315, 3-((2-(dimethylamino)ethyl)amino)-N-(5-phenyl-1,3,4-thiadiazol-2-yl)-6,7,8,9-tetrahydro-5H-cyclohepta[b]thieno [3,2-e]pyridine-2-carboxamide] |  | EC50 [4]: < 5 µM |
| CCCCNC(=O)c1sc2nc3c(cc2c1N)CCCCC3 [Compound 282, 3-amino-N-butyl-6,7,8,9-tetrahydro-5H-cyclohepta [b]thieno[3,2-e]pyridine-2-carboxamide] |  | EC50 [1]: 5 to 25 µM |
| CC(=O)c1cccc(NC(=O)c2sc3nc(C)cc(C)c3c2N)c1 [Compound 256, 3-Amino-4,6-dimethyl-thieno[2,3-b]pyridine-2-carboxylic acid (3-acetyl-phenyl)-amide] | > 25 |  |
| COCc1cc(C)nc2sc(C(=O)Nc3cc(Br)cc4cccnc34)c(N)c12 [Compound 146, 3-Amino-4-methoxymethyl-6-methyl-thieno[2,3-b]pyridine-2-carboxylic acid (6-bromo-quinolin-8-yl)-amide] |  | EC50 [3]: > 25 µM |
| COc1ccc(NC(=O)c2sc3nc(C)cc(C(F)(F)F)c3c2N)cc1 [Compound 162, 3-Amino-6-methyl-4-trifluoromethyl-thieno[2,3-b]pyridine-2-carboxylic acid (4-methoxy-phenyl)-amide] | > 25 |  |
